The values below come from patent US20240350402A1, “TOPICAL DRUG TREATMENT TO PREVENT OR REDUCE CORNEAL SCARRING” (The Cleveland Clinic Foundation, priority 2021, published 2024).

In this test the test system is myofibroblast marker α-SMA. Briefly: -9D PRK model: IHC stromal α-SMA pixels (ImageJ). The test is classed as in vivo, rabbit. The note with it: topical 0.8 mg/ml losartan six times a day, one month. As to the method: Animal procedures were approved by the Institutional Animal Care and Use Committee at the Cleveland Clinic Foundation and animals were treated in accordance with the tenets of the Association for Research in Vision and Ophthalmology Statement for the Use of Animals in Ophthalmic and Vision Research. Twelve female 12- to 15-week-old New Zealand white rabbits weighing 2.5 to 3 kg each were included. Starting 24 hours prior to surgery and continuing 5 days after PRK, all rabbits received 60 mL children's liquid acetaminophen (Johnson & Johnson, Ft. Washington, PA, USA) per 1 L of drinking water. One eye of each rabbit was randomly selected to have −9.0 D (on myopia scale) PRK and received 2 drops of topical 1% proparacaine hydrochloride (Alcon, Fort Worth, TX, USA) prior to the surgery. […]
All images were converted to 300 DPI 900 pixel width×672 pixel height images with Photoshop 22.1.1 (Adobe, San Jose, CA). The mean pixels of stromal α-SMA or stromal collagen type IV were determined in a 900-pixel wide×235-pixel high rectangle (for either α-SMA or collagen type IV quantitation) with ImageJ in three sections for each cornea using the image panels showing only the color of interest. […]

With `CCCCc1nc(Cl)c(CO)n1Cc1ccc(-c2ccccc2-c2nn[nH]n2)cc1` [losartan], the “total pixels of α-SMA staining within the analyzed rectangle (mean±SEM)” value is recorded as 120±60 pixels.
